Measured values: paper PMC12096829, “Maltodextrin transport in the extremely thermophilic, lignocellulose degrading bacterium Anaerocellum bescii (f. Caldicellulosiruptor bescii)” (Journal of Bacteriology, 2025)
“And” between values parts separate entries of the source, which are not always exact repeats. Equal values may be shown once. Read-outs that look alike come from different tables or passages of the source.

How the values were obtained:
Athe_2310 [1] = target: T1, Athe_2310 (Anaerocellum bescii, UniProt A0ABY1S743); assay: ITC of Athe_2310 with ɑ-glucan substrates; assay type: binding; details: for Ka: Ka=1/Kd; for n (stoichiometry): single-site binding model
Protocol: Proteins were dialyzed into the following buffer: 50 mM HEPES, 300 mM NaCl, pH 7.0 via 10 kDa MWCO PES filter 20 mL Spin-X Concentrators (Corning). […] A standard titration experiment consisted of the protein sample at 50 µM and the sugar ligand at 500 µM. The stirring was set at 750 rpm. The 280 µL sample of protein was injected with a priming aliquot of 0.2 µL of sugar ligand, followed by 19 successive injections of 2.0 µL at 120 seconds intervals. Integrated heat effects were determined by non-linear regression using a single-site binding model (Microcal PEAQ-ITC Analysis). The fitted isotherms yield the binding dissociation constant and other thermodynamic parameters calculated using the differential form of the Gibbs Free Energy equation ΔGd=-RTln(Kd) . The slope of the binding isotherm at the equivalence point was used to determine the dissociation constant Kd .

[2] = test system: Athe_2310_Mut1 (D69F G279F G278F); assay: DSC screen of mutant Athe_2310_Mut1 with maltodextrins; assay type: binding, Anaerocellum bescii; details: Fig. S5, result in words
Excerpt: We constructed mutant variants Athe_2310_Mut1 (D69F G279F G278F) and Athe_2574_Mut1 (G253F V254F P61W N63F D64F M322A W332A) that each contain point substitutions on residues predicted to be critical for both hydrophobic and hydrophilic contacts. In other words, the mutation of these residues is predicted to confer energetic penalties sufficiently large to prevent substrate binding. […] Similarly, Athe_2574_Mut1, with seven-point mutations due to its greater number of subsites, can no longer recognize maltodextrin substrates of any length (Fig. S6).
DSC measurements using a MicroCal PEAQ-DSC (Malvern Panalytical) were performed on Athe_2310 and Athe_2574 in combination with a variety of ɑ-glucans: trehalose (G2), maltose (G2), maltotriose (G3), maltotetraose (G4), maltopentaose (G5), and maltoheptaose (G7). The scan rate was set to […], with a max temperature of 130 °C. Protein was mixed with each sugar, yielding final concentrations of 2.5 mg/mL of protein and 5 mM of sugar. A total of 50 mM HEPES, 300 mM NaCl, pH 7.0, was used as the reference buffer. The heat capacity Cp was plotted against temperature and then normalized by the respective run’s maximum Cp value ( Cp,max ). We defined the melting temperature Tm as the temperature corresponding to Cp,max=Cp(T=Tm) . […]

Athe_2574 [3] = target: T2, Athe_2574 (Anaerocellum bescii, UniProt A0ABY1S640); assay: biochemical; assay type: binding; details: for TΔS / ΔG / ΔH / Kd / Ka / n (stoichiometry): ITC 25 °C; for Kd: 50 mM HEPES; for Ka: Ka=1/Kd; for n (stoichiometry): single-site binding model
Protocol: Proteins were dialyzed into the following buffer: 50 mM HEPES, 300 mM NaCl, pH 7.0 via 10 kDa MWCO PES filter 20 mL Spin-X Concentrators (Corning). Measurements were performed at 25 °C using a MicroCal PEAQ Isothermal Titration Calorimeter (Malvern Panalytical). A standard titration experiment consisted of the protein sample at 50 µM and the sugar ligand at 500 µM. The stirring was set at 750 rpm. The 280 µL sample of protein was injected with a priming aliquot of 0.2 µL of sugar ligand, followed by 19 successive injections of 2.0 µL at 120 seconds intervals. Integrated heat effects were determined by non-linear regression using a single-site binding model (Microcal PEAQ-ITC Analysis). The fitted isotherms yield the binding dissociation constant and other thermodynamic parameters calculated using the differential form of the Gibbs Free Energy equation ΔGd=-RTln(Kd) . The slope of the binding isotherm at the equivalence point was used to determine the dissociation constant Kd . The […] Ka is defined as Ka=1/Kd .

Athe_2574 [4] = target: T2, Athe_2574; assay: DSC thermal shift of Athe_2574 with ɑ-glucan substrates; assay type: binding; details: for Tm: Athe_2574 + sugar, 2.5 mg/mL protein; for Tm / ΔTm: 5 mM sugar, 50 mM HEPES, 300 mM NaCl pH 7.0; for ΔTm: |Tm,holo − Tm,apo|
Excerpt: (§1) In DSC, proteins are heated at a constant rate to induce thermal denaturation. This can be measured by an increase in the protein’s specific heat capacity Cp(T) as a function of temperature. The melting temperature Tm is defined as the temperature at which the protein attains its maximum heat capacity and becomes fully denatured ([46]). However, the presence of their cognate ligands can induce substrate-binding proteins to adopt a more thermally stable closed conformation, resulting in an increase in Tm ([47]). This ΔTm = |Tm,holo − Tm,apo| difference can be used to determine differential substrate specificity, as preferred ligands that are more tightly bound will yield larger ΔTm values. […] However, other short ɑ-glucans trehalose (ΔTm = 7.23 °C) and maltotriose (ΔTm = 6.63 °C) also yield substantial melting temperature differences. Melting temperature differences are subtler with longer oligosaccharides maltotetraose (ΔTm = 1.57 °C), maltopentaose (ΔTm = 0.95 °C), and maltoheptaose (ΔTm = 0.26 °C) (Fig. 4a). However, as binding of maltose to E. coli MBP is known to increase protein melting temperature by approximately 8 °C, depending on pH, it is unlikely binding is taking place between Athe_2310 and longer maltodextrins (G4–G7) due to their much smaller ΔTm values in comparison ([47], [48]).
(§2) DSC measurements using a MicroCal PEAQ-DSC (Malvern Panalytical) were performed on Athe_2310 and Athe_2574 in combination with a variety of ɑ-glucans: trehalose (G2), maltose (G2), maltotriose (G3), maltotetraose (G4), maltopentaose (G5), and maltoheptaose (G7). The scan rate was set to […], with a max temperature of 130 °C. Protein was mixed with each sugar, yielding final concentrations of 2.5 mg/mL of protein and 5 mM of sugar. A total of 50 mM HEPES, 300 mM NaCl, pH 7.0, was used as the reference buffer. The heat capacity Cp was plotted against temperature and then normalized by the respective run’s maximum Cp value ( Cp,max ). We defined the melting temperature Tm as the temperature corresponding to Cp,max=Cp(T=Tm) . The melting temperature difference ΔTm=|Tm,holo-Tm,apo| is defined as the absolute difference in melting temperature between the melting temperature of a protein-sugar mix and the same protein with no sugar present.

Athe_2310 [5] = target: T1, Athe_2310; assay: DSC thermal shift of Athe_2310 with ɑ-glucan substrates; assay type: binding; details: 5 mM sugar, 50 mM HEPES, 300 mM NaCl pH 7.0; for Tm: Athe_2310 + sugar, 2.5 mg/mL protein; for ΔTm: Athe_2310, |Tm,holo − Tm,apo|
Excerpt: as §1, §2

E. coli MBP = test system: E. coli MBP; set-up: method as in PMID 9007986, doi:10.1007/s00723-020-01232-y; details: depending on pH; cited from earlier work
[6] = Athe_2310, ITC 25 °C, 50 mM HEPES, 300 mM NaCl pH 7.0, read-out: Kd
[7] = 300 mM NaCl pH 7.0, read-out: Kd

T2 sequence (A0ABY1S640 entry or part of it): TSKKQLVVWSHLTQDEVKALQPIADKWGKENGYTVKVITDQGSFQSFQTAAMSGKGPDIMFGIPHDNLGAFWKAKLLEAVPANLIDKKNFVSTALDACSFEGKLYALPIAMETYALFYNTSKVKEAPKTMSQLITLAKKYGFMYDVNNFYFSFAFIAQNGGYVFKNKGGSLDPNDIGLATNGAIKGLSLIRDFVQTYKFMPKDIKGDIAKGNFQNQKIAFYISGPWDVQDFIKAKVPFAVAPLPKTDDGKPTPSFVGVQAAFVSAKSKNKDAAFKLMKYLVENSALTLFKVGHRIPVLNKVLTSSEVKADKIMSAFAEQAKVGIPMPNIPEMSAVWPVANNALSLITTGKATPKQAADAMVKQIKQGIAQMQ
T1 sequence (A0ABY1S743 entry or part of it): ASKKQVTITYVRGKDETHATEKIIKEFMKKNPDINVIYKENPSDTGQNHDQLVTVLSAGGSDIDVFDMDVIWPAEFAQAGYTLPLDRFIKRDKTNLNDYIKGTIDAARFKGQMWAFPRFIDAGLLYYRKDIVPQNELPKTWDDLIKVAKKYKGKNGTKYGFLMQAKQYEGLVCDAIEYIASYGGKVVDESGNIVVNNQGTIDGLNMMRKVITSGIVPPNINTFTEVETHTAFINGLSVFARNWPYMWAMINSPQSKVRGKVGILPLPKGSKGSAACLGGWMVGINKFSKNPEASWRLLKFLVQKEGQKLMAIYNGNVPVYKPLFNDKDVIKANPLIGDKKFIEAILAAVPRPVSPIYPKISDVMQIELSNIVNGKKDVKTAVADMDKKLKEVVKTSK

Row | SMILES | TΔS (Athe_2310 [1]; Athe_2310, ITC 25 °C) [kcal/mol] | ΔG (Athe_2310 [1]; Athe_2310, ITC 25 °C) [kcal/mol] | ΔH (Athe_2310 [1]; Athe_2310, ITC 25 °C) [kcal/mol] | Kd (Athe_2310 [1]; [6]) [µM] | Ka (Athe_2310 [1]; Athe_2310, ITC 25 °C) [M⁻¹] | n (stoichiometry) (Athe_2310 [1]; Athe_2310, ITC 25 °C) | binding to Athe_2310_Mut1 [2] | TΔS (Athe_2574 [3]) [kcal/mol] | ΔG (Athe_2574 [3]) [kcal/mol] | ΔH (Athe_2574 [3]) [kcal/mol] | Kd (Athe_2574 [3]; [7]) [µM] | Ka (Athe_2574 [3]) [M⁻¹] | n (stoichiometry) (Athe_2574 [3]) | Tm (Athe_2574 [4]) | ΔTm (Athe_2574 [4]; Athe_2574) [°C] | Tm (Athe_2310 [5]) | ΔTm (Athe_2310 [5]) [°C] | also measured
1 | OC[C@H]1O[C@H](O[C@H]2[C@H](O)[C@@H](O)[C@@H](O[C@H]3[C@H](O)[C@@H](O)C(O)O[C@@H]3CO)O[C@@H]2CO)[C@H](O)[C@@H](O)[C@@H]1O (stereo partly drawn) [MalG3, D-Maltotriose] | -4.85 | -7.21 | -2.36 ± 0.38 | 5.21 ± 2.98 | 192000 | 0.79 ± 0.06 | can no longer bind | 20.4 | -4.48 | -24.80 ± 2410 | 523 | 1900 | 1.57 ± 85.80 | 101.47 °C | 8.72 | 108.42 °C | 6.63 | Tm (Athe_2574 [4]; listed as Maltotriose): 101.5 °C; Tm (Athe_2310 [5]; listed as Maltotriose): 108.4 °C
2 | OC[C@H]1O[C@H](O[C@H]2O[C@H](CO)[C@@H](O)[C@H](O)[C@H]2O)[C@H](O)[C@@H](O)[C@@H]1O [Trehalose, D-Trehalose Dihydrate] | -4.45 | -7.63 | -3.18 ± 0.14 | 2.59 ± 0.5 | 386000 | 0.96 ± 0.02 | – | – | – | – | – | – | – | 92.8 °C and 92.69 °C | 0.1 | 109.02 °C | 7.23 | binding to Athe_2574 judged from DSC melting profile (Athe_2574 [4]; Athe_2574, result in words): absence of binding
3 | OC[C@H]1O[C@H](O[C@H]2[C@H](O)[C@@H](O)[C@@H](O[C@H]3[C@H](O)[C@@H](O)[C@@H](O[C@H]4[C@H](O)[C@@H](O)[C@@H](O[C@H]5[C@H](O)[C@@H](O)[C@@H](O[C@H]6[C@H](O)[C@@H](O)[C@@H](O[C@H]7[C@H](O)[C@@H](O)C(O)O[C@@H]7CO)O[C@@H]6CO)O[C@@H]5CO)O[C@@H]4CO)O[C@@H]3CO)O[C@@H]2CO)[C@H](O)[C@@H](O)[C@@H]1O (stereo partly drawn) [MalG7, D-Maltoheptaose] | – | – | – | – | – | – | – | -2.69 | -9.98 | -7.29 ± 0.04 | – | 2.0492e+07 | 0.82 ± 0.00 | 105.04 °C | – | 102.06 °C | – | Kd (Athe_2574 [3]; Kd, 300 mM NaCl pH 7.0): 0.049 µM and 0.05 µM; Tm (Athe_2574 [4]; listed as Maltoheptaose): 105.0 °C; Tm (Athe_2310 [5]; listed as Maltoheptaose): 102.1 °C
4 | OC[C@H]1O[C@H](O[C@H]2[C@H](O)[C@@H](O)[C@H](O)O[C@@H]2CO)[C@H](O)[C@@H](O)[C@@H]1O [Maltose, D-Maltose Monohydrate] | -3.85 | -7.38 | -3.53 ± 0.18 | – | 254000 | 0.76 ± 0.02 | can no longer bind | – | – | – | – | – | – | 97.8 °C | – | 110.9 °C and 110.85 °C | – | increase of protein melting temperature on binding (E. coli MBP): approximately 8 °C; Kd (Athe_2310 [1]): 3.93 ± 0.78 µM; ITC enthalpy changes of binding / fit of Kd and n (Athe_2574 [3]; result in words): too small to fit meaningful
5 | OC[C@H]1O[C@H](O[C@H]2[C@H](O)[C@@H](O)[C@@H](O[C@H]3[C@H](O)[C@@H](O)[C@@H](O[C@H]4[C@H](O)[C@@H](O)C(O)O[C@@H]4CO)O[C@@H]3CO)O[C@@H]2CO)[C@H](O)[C@@H](O)[C@@H]1O (stereo partly drawn) [MalG4, D-Maltotetraose] | – | – | – | – | – | – | – | 0.664 | -9.24 | -9.90 ± 0.19 | 0.17 ± 0.04 | 5.848e+06 | 0.98 ± 0.01 | 104.26 °C | – | 103.36 °C | – | Tm (Athe_2574 [4]; listed as Maltotetraose): 102.7 °C; Tm (Athe_2310 [5]; listed as Maltotetraose): 103.4 °C
6 | OC[C@H]1O[C@H](O[C@H]2[C@H](O)[C@@H](O)[C@@H](O[C@H]3[C@H](O)[C@@H](O)[C@@H](O[C@H]4[C@H](O)[C@@H](O)[C@@H](O[C@H]5[C@H](O)[C@@H](O)C(O)O[C@@H]5CO)O[C@@H]4CO)O[C@@H]3CO)O[C@@H]2CO)[C@H](O)[C@@H](O)[C@@H]1O (stereo partly drawn) [MalG5, D-Maltopentaose] | – | – | – | – | – | – | – | -3.03 | -9.56 | -6.52 ± 0.07 | 0.1 ± 0.01 | 9.901e+06 | 0.90 ± 0.00 | 104.93 °C | – | 102.73 °C | – | Tm (Athe_2574 [4]; listed as Maltopentaose): 104.9 °C; Tm (Athe_2310 [5]; listed as Maltopentaose): 102.7 °C
